In ChEMBL document CHEMBL1201862, “PubChem BioAssay data set” (2004):
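These data come from cells grown in 96-well plates and exposed to compound for 48 hours at five concentrations. At the GI50, growth is halved.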 Active and inactive are the calls of the source. No stated cut-off is given here; in the data, active = GI50 up to about 1.1 µM and inactive = higher.

Experiments:
Test in all cases: NCI tumour cell line growth inhibition, 48 h
CAKI-1 = tested on: CAKI-1
HCT-15 = tested on: HCT-15
DU-145 = tested on: DU-145
OVCAR-4 = tested on: OVCAR-4
SF-295 = tested on: SF-295
SK-MEL-28 = tested on: SK-MEL-28
SR = tested on: SR
HCC 2998 = tested on: HCC 2998
SNB-19 = tested on: SNB-19
NCI-H23 = tested on: NCI-H23
MDA-MB-435 = tested on: MDA-MB-435
SF-539 = tested on: SF-539
OVCAR-8 = tested on: OVCAR-8
OVCAR-3 = tested on: OVCAR-3
KM12 = tested on: KM12
UACC-257 = tested on: UACC-257
M14 = tested on: M14
UO-31 = tested on: UO-31
RXF 393 = tested on: RXF 393

SMILES	GI50 (CAKI-1)	GI50 (HCT-15) [µM]	GI50 (DU-145)	GI50 (OVCAR-4)	GI50 (SF-295)	GI50 (SK-MEL-28)	GI50 (SR)	GI50 (HCC 2998)	GI50 (SNB-19)	GI50 (NCI-H23)	GI50 (MDA-MB-435)	GI50 (SF-539)	GI50 (OVCAR-8)	GI50 (OVCAR-3)	GI50 (KM12)	GI50 (UACC-257)	GI50 (M14)	GI50 (UO-31)	GI50 (RXF 393)
CC1=CC(c2ccccc2)OP1(=O)c1ccccc1 (stereo unspecified)	> 100 µM (inactive)	> 100	> 100 µM (inactive)	> 100 µM (inactive)	> 100 µM (inactive)	> 100 µM (inactive)	> 100 µM (inactive)	> 100 µM (inactive)	> 100 µM (inactive)	> 100 µM (inactive)	> 100 µM (inactive)	> 100 µM (inactive)	> 100 µM (inactive)	> 100 µM (inactive)	> 100 µM (inactive)	> 100 µM (inactive)	> 100 µM (inactive)	–	–
Cc1cc(C)nc(NS(=O)(=O)c2ccc(Nc3nncc(=O)n3N)cc2)n1	16 µM (inactive)	14.5	34.3 µM (inactive)	18.1 µM (inactive)	31.6 µM (inactive)	26.5 µM (inactive)	16.8 µM (inactive)	30.5 µM (inactive)	30.6 µM (inactive)	14.4 µM (inactive)	18.6 µM (inactive)	31.6 µM (inactive)	15.4 µM (inactive)	16.3 µM (inactive)	36.2 µM (inactive)	19.8 µM (inactive)	34.8 µM (inactive)	19.3 µM (inactive)	–
O=C(/C=C/c1ccccc1O)c1ccccc1Cl	49.8 µM (inactive)	28.6	–	19.2 µM (inactive)	> 100 µM (inactive)	> 100 µM (inactive)	27.7 µM (inactive)	38.1 µM (inactive)	45.1 µM (inactive)	21.1 µM (inactive)	–	44.5 µM (inactive)	58.6 µM (inactive)	38.1 µM (inactive)	24.6 µM (inactive)	> 100 µM (inactive)	54.5 µM (inactive)	52.4 µM (inactive)	43.1 µM (inactive)
CN1C(OCc2ccccc2)c2c(ccc3c2OCO3)C2C=Cc3cc4c(cc3C21)OCO4 (stereo unspecified)	1.03 µM (active)	0.597	–	1.69 µM (inactive)	1.47 µM (inactive)	0.455 µM (active)	0.237 µM (active)	1.63 µM (inactive)	1.69 µM (inactive)	1.38 µM (inactive)	–	1.63 µM (inactive)	0.319 µM (active)	0.69 µM (active)	1.01 µM (active)	1.37 µM (inactive)	0.885 µM (active)	1.32 µM (inactive)	1.1 µM (active)
Clc1ccc(OCc2nnc3n2N=C(c2ccc(Br)cc2)CS3)cc1	> 10 µM (inactive)	51.3	–	7.89 µM (inactive)	15.8 µM (inactive)	28 µM (inactive)	> 100 µM (inactive)	84.5 µM (inactive)	23.7 µM (inactive)	40.9 µM (inactive)	–	8.43 µM (inactive)	15.9 µM (inactive)	> 10 µM (inactive)	80.7 µM (inactive)	23.1 µM (inactive)	> 10 µM (inactive)	2.8 µM (inactive)	12.1 µM (inactive)
Cc1ccc(S(=O)(=O)N/N=C/c2oc(-c3ccncc3)c(-c3ccncc3)c2[N+](=O)[O-])cc1	> 100 µM (inactive)	> 100	–	> 100 µM (inactive)	> 100 µM (inactive)	> 100 µM (inactive)	> 100 µM (inactive)	> 100 µM (inactive)	> 100 µM (inactive)	> 100 µM (inactive)	–	> 100 µM (inactive)	> 100 µM (inactive)	> 100 µM (inactive)	> 100 µM (inactive)	> 100 µM (inactive)	> 100 µM (inactive)	> 100 µM (inactive)	> 100 µM (inactive)
COc1ccc(C[C@@H]2CN(C(=O)c3ccccc3)[C@H](Cc3ccc(O)cc3)CN2C(=O)c2ccccc2)cc1Br	> 100 µM (inactive)	> 100	> 100 µM (inactive)	> 100 µM (inactive)	> 100 µM (inactive)	> 100 µM (inactive)	88.3 µM (inactive)	> 100 µM (inactive)	> 100 µM (inactive)	> 100 µM (inactive)	> 100 µM (inactive)	> 100 µM (inactive)	> 100 µM (inactive)	> 100 µM (inactive)	> 100 µM (inactive)	> 100 µM (inactive)	> 100 µM (inactive)	> 100 µM (inactive)	–
COc1cc(OC)c2c(c1)C(=O)C(CC(C)O)=CC2=O (stereo unspecified)	20.1 µM (inactive)	14.6	–	17.8 µM (inactive)	14.2 µM (inactive)	17.7 µM (inactive)	2 µM (inactive)	28.6 µM (inactive)	17.7 µM (inactive)	19.7 µM (inactive)	–	18.4 µM (inactive)	15.7 µM (inactive)	5.82 µM (inactive)	19.5 µM (inactive)	16.6 µM (inactive)	18.5 µM (inactive)	16.3 µM (inactive)	12.7 µM (inactive)
CN(C)/N=C(/c1nc2ccc([N+](=O)[O-])cc2nc1O)C(O)c1ccco1 (stereo unspecified)	48.1 µM (inactive)	26.2	–	> 100 µM (inactive)	> 100 µM (inactive)	> 100 µM (inactive)	> 100 µM (inactive)	53 µM (inactive)	> 100 µM (inactive)	> 100 µM (inactive)	–	> 100 µM (inactive)	> 100 µM (inactive)	> 100 µM (inactive)	34.8 µM (inactive)	> 100 µM (inactive)	> 100 µM (inactive)	2.51 µM (inactive)	> 100 µM (inactive)
CCOc1ccccc1NC(=O)C(C#N)C1=C(Cl)C(=O)c2ccccc2C1=O (stereo unspecified)	2.76 µM (inactive)	1.47	–	1.94 µM (inactive)	1.72 µM (inactive)	2.03 µM (inactive)	1.33 µM (inactive)	1.75 µM (inactive)	2.13 µM (inactive)	2.14 µM (inactive)	–	2.12 µM (inactive)	0.792 µM (active)	1.6 µM (inactive)	1.72 µM (inactive)	1.06 µM (active)	1.68 µM (inactive)	1.73 µM (inactive)	1.97 µM (inactive)
CN(C)c1ccc(NN=C2SC(=N\c3ccccc3)/C(=N/c3ccccc3)S2)cc1	76.4 µM (inactive)	9.31	> 100 µM (inactive)	30.2 µM (inactive)	> 100 µM (inactive)	> 100 µM (inactive)	–	26.6 µM (inactive)	> 100 µM (inactive)	12.1 µM (inactive)	20.4 µM (inactive)	53.7 µM (inactive)	64.9 µM (inactive)	–	18.2 µM (inactive)	8.2 µM (inactive)	–	52.4 µM (inactive)	10 µM (inactive)
O=C(O)Cc1ccc(Nc2nc3cc(C(F)(F)F)ccc3nc2C(=O)O)cc1	> 100 µM (inactive)	> 100	> 100 µM (inactive)	> 100 µM (inactive)	> 100 µM (inactive)	> 100 µM (inactive)	< 0.01 µM (active)	–	> 100 µM (inactive)	> 100 µM (inactive)	> 100 µM (inactive)	> 100 µM (inactive)	> 100 µM (inactive)	> 100 µM (inactive)	> 100 µM (inactive)	> 100 µM (inactive)	> 100 µM (inactive)	> 100 µM (inactive)	> 100 µM (inactive)
